US20150087677A1, “METHODS FOR TREATING VESTIBULOTOXICTY” (priority 2012, published 2015)

Legend:
[1] = test system: cisplatin induced vestibulotoxicity; experiment: Induced deficits of vestibular behavior after transtympanic cisplatin (vestibular deficit score); assay type: in vivo, rat; conditions: for time after the lesion at which protective effects are first observed: effects persist over the following days
Protocol: Vestibular deficit associated behaviors were scored on a scale from 0 to 4, respectively ranging from normal behavior (rating 0) to maximal identified vestibular impairment (rating 4). […] Rats were scored for vestibular deficits after transtympanic injection of cisplatin (50 μl, 2 mg/ml) and, evaluated from 4 to 336 hrs after the injection (FIG. 4). Scores were expressed as mean (±sem). For preventive treatment, injection of cimetidine (i.p., 12 mg/kg) was injected 4 hours before the transtympanic injection of cisplatin. Sham animals received saline (i.p) 4 hours before the lesion. To focus on the preventive action of transtympanic injection of the compounds of the invention in the first 72 hours, ototoxicity is induced by a transtympanic injection (50 μl) of cisplatin (2 mg/ml in saline; 6.7 mM) and a determined ratio of corresponding molar dose of compounds are premixed and injected transtympanically with cisplatin. For example, for the dose ratio 1/2 of compound/cisplatin, a solution of 3.5 mM of compound of interest in addition to the 6.7 mM of cisplatin in saline is prepared and, 50 μl of this mixed saline solution is injected transtympanically at TO. Different control animals are run in parallel: saline only, cisplatin (6.7 mM) only to control the initial lesion, and the compounds of interest alone at different doses in saline to control potential ototoxicity of the compound independently of cisplatin, are with cisplatin. […] For transtympanic experiments, rats were scored for vestibular deficits just before the transtympanic injection, TO and, evaluated at 24, 48 & 72 hours after the injection (FIGS. 5 to 11). Scores were expressed as mean (±sem).

[2] = test system: vestibular hair cells; assay type: cell-based, rat; conditions: co-treatment with cimetidine (1000 μM) and cisplatin for 48 hrs, FIG. 3
Protocol: Vestibular end organs were aseptically removed from animals. Explants composed of sensory and nonsensory epithelia were placed on 5 μl of growth factor-reduced Matrigel on laminin (10 μg/ml)-coated glass coverslips. These preparations were incubated for 30 min at 37° C. in a 95%/5% O2/CO2 atmosphere at saturating moisture. Explants were then cultured in DMEM and F12 (50%/50% v/v) media supplemented with N2 mixture (2%). The medium was renewed every 4 d. […] Treated cultures were then fixed with PAF 4% for 1 hr. Labeling of hair bundles was processed using Alex488-conjugated phalloidin (1:700) overnight. After rinsing with PBS, cultures were mounted in Moviol (Calbiochem). Labelling was observed and image digitalized using an apotome microscope (Zeiss). Hair bundles per utricle were quantified using ImageJ software. Statistical analysis was processed with SigmaPlot software (Systat Software). Final image processing was performed with Adobe Photoshop software.

[3] = transtympanic injection premixed with cisplatin, rats, FIGS. 5 to 11
[4] = transtympanic injection, FIGS. 5 to 11

Row | Compound | effect on vestibular toxicity and behavioral deficits induced by cisplatin [1, 3] | time after the lesion at which protective effects are first observed [1, 4] | effect on cisplatin-induced vestibular hair cell loss in vitro [2] | effect on vestibular toxicity and behavioral deficits induced by cisplatin ([1]; adult rats, systemic (i.p., 12 mg/kg) pretreatment 4 hrs before transtympanic cisplatin, FIG. 4) | time after the lesion at which protective effects are first observed ([1]; systemic (i.p.) pretreatment t-4 hrs, FIG. 4)
1 | CNC(=C[N+](=O)[O-])NCCSCc1csc(CN(C)C)n1 [nizatidine] | reduces the vestibular toxicity and behavioral deficits | 24 h |  |  | 
2 | CNC(=C[N+](=O)[O-])NCCSCc1ccc(CN(C)C)o1 [ranitidine] |  | 24 h |  |  | 
3 | COc1ccc2[nH]c([S+]([O-])Cc3ncc(C)c(OC)c3C)nc2c1 (stereo not shown) [omeprazole] |  | 24 h |  |  | 
4 | COc1ccnc(C[S+]([O-])c2nc3ccc(OC(F)F)cc3[nH]2)c1OC (stereo not shown) [pantoprazole] |  | 24 h |  |  | 
5 | CN/C(=N/CCSCc1nc[nH]c1C)NC#N [cimetidine] | reduces the vestibular toxicity and behavioral deficits | 24 h | reduces vestibular hair cell loss | reduces the vestibular toxicity and behavioral deficits | 48 h
6 | Cc1c(OCC(F)(F)F)ccnc1C[S+]([O-])c1nc2ccccc2[nH]1 (stereo not shown) [lansoprazole] | reduces the vestibular toxicity and behavioral deficits | 24 h |  |  | 
7 | COCCCOc1ccnc(C[S+]([O-])c2nc3ccccc3[nH]2)c1C (stereo not shown) [rabeprazole] |  | 24 h |  |  | 
